# Results as given in patent publication US10405547B2, “Substituted cyclic amides as herbicides” (FMC Corporation, priority 2015, dated 2019).
# Tests used:
# Assay type in all cases: in vivo
# Conditions in all cases: 0 to 100 scale (0 no effect, 100 complete control)
# corn (Zea mays) = assay: Test A postemergence, corn
# Source text: (§1) Test A Seeds of plant species selected from barnyardgrass (Echinochloa crus-galli), kochia (Kochia scoparia), ragweed (common ragweed, Ambrosia elatior), ryegrass, Italian (Lolium multiflorum), foxtail, giant (Setaria faberii), and pigweed (Amaranthus retroflexus), were planted into a blend of loam soil and sand and treated preemergence with a directed soil spray using test chemicals formulated in a non-phytotoxic solvent mixture which included a surfactant.
# (§2) At the same time, plants selected from these weed species and also blackgrass (Alopecurus myosuroides), galium (catchweed bedstraw, Galium aparine), wheat (Triticum aestivum), and corn (Zea mays) were planted in pots containing the same blend of loam soil and sand and treated with postemergence applications of test chemicals formulated in the same manner. Plants ranged in height from 2 to 10 cm and were in the one- to two-leaf stage for the postemergence treatment. Treated plants and untreated controls were maintained in a greenhouse for approximately 10 days, after which time all treated plants were compared to untreated controls and visually evaluated for injury. Plant response ratings, summarized in Table A, are based on a 0 to 100 scale where 0 is no effect and 100 is complete control. A dash (-) response means no test result.
# [1] = tested on: wheat (Triticum aestivum); assay: Test A postemergence, wheat
# Source text: as §1, §2
# [2] = tested on: pigweed (Amaranthus retroflexus); assay: Test A preemergence, pigweed
# Source text: as §1, §2
# [3] = tested on: ragweed (common ragweed, Ambrosia elatior); assay: Test A preemergence, ragweed
# Source text: as §1, §2
# [4] = tested on: blackgrass (Alopecurus myosuroides); assay: Test A postemergence, blackgrass
# Source text: as §1, §2
# [5] = tested on: galium (catchweed bedstraw, Galium aparine); assay: Test A postemergence, galium
# Source text: as §1, §2
# [6] = tested on: barnyardgrass (Echinochloa crus-galli); assay: Test A preemergence, barnyardgrass
# Source text: as §1, §2
# kochia (Kochia scoparia) [7] = assay: Test A preemergence, kochia
# Source text: as §1, §2
# [8] = tested on: ragweed (common ragweed, Ambrosia elatior); assay: Test A postemergence, ragweed
# Source text: as §1, §2
# [9] = tested on: ryegrass, Italian (Lolium multiflorum); assay: Test A postemergence, Italian ryegrass
# Source text: as §1, §2
# [10] = tested on: barnyardgrass (Echinochloa crus-galli); assay: Test A postemergence, barnyardgrass
# Source text: as §1, §2
# [11] = tested on: foxtail, giant (Setaria faberii); assay: Test A preemergence, giant foxtail
# Source text: as §1, §2
# [12] = tested on: ryegrass, Italian (Lolium multiflorum); assay: Test A preemergence, Italian ryegrass
# Source text: as §1, §2
# [13] = tested on: foxtail, giant (Setaria faberii); assay: Test A postemergence, giant foxtail
# Source text: as §1, §2
# kochia (Kochia scoparia) [14] = assay: Test A postemergence, kochia
# Source text: as §1, §2
# [15] = tested on: pigweed (Amaranthus retroflexus); assay: Test A postemergence, pigweed
# Source text: as §1, §2
# [16] = 125 g ai/ha, visual injury, approximately 10 days
# [17] = 500 g ai/ha, visual injury, approximately 10 days
compound,measurement,setting,value
O=C1NCC(c2cccc(COc3ccccc3)c2)C1C(=O)Nc1ccc(F)cc1F (stereo not shown) [Compound 20],"Plant response rating, Corn",corn (Zea mays); [16],0
same,"Plant response rating, Corn",corn (Zea mays); [17],0
same,"Plant response rating, Wheat",[1]; [16],0
same,"Plant response rating, Wheat",[1]; [17],0
same,"Plant response rating, Pigweed",[2]; 125 g ai/ha,0
same,"Plant response rating, Pigweed",[2]; 500 g ai/ha,0
same,"Plant response rating, Ragweed",[3]; 125 g ai/ha,0
same,"Plant response rating, Ragweed",[3]; 500 g ai/ha,0
same,"Plant response rating, Blackgrass",[4]; [16],0
same,"Plant response rating, Blackgrass",[4]; [17],0
same,"Plant response rating, Galium",[5]; [16],0
same,"Plant response rating, Galium",[5]; [17],0
same,"Plant response rating, Barnyardgrass",[6]; 125 g ai/ha,20
same,"Plant response rating, Barnyardgrass",[6]; 500 g ai/ha,70
same,"Plant response rating, Kochia",kochia (Kochia scoparia) [7]; 125 g ai/ha,0
same,"Plant response rating, Kochia",kochia (Kochia scoparia) [7]; 500 g ai/ha,30
same,"Plant response rating, Ragweed",[8]; [16],0
same,"Plant response rating, Ragweed",[8]; [17],0
same,"Plant response rating, Ryegrass, Italian",[9]; [16],0
same,"Plant response rating, Ryegrass, Italian",[9]; [17],0
same,"Plant response rating, Barnyardgrass",[10]; [16],40
same,"Plant response rating, Barnyardgrass",[10]; [17],70
same,"Plant response rating, Foxtail, Giant",[11]; 125 g ai/ha,30
same,"Plant response rating, Foxtail, Giant",[11]; 500 g ai/ha,80
same,"Plant response rating, Ryegrass, Italian",[12]; 125 g ai/ha,0
same,"Plant response rating, Ryegrass, Italian",[12]; 500 g ai/ha,0
same,"Plant response rating, Foxtail, Giant",[13]; [16],40
same,"Plant response rating, Foxtail, Giant",[13]; [17],60
same,"Plant response rating, Kochia",kochia (Kochia scoparia) [14]; [16],0
same,"Plant response rating, Kochia",kochia (Kochia scoparia) [14]; [17],0
same,"Plant response rating, Pigweed",[15]; [16],0
same,"Plant response rating, Pigweed",[15]; [17],0
O=C1NCC(c2cccc(Cn3cccn3)c2)C1C(=O)Nc1cccc(F)c1F (stereo not shown) [Compound 30],"Plant response rating, Corn",corn (Zea mays); [16],0
same,"Plant response rating, Corn",corn (Zea mays); [17],0
same,"Plant response rating, Wheat",[1]; [16],0
same,"Plant response rating, Wheat",[1]; [17],0
same,"Plant response rating, Pigweed",[2]; 125 g ai/ha,0
same,"Plant response rating, Pigweed",[2]; 500 g ai/ha,0
same,"Plant response rating, Ragweed",[3]; 125 g ai/ha,0
same,"Plant response rating, Ragweed",[3]; 500 g ai/ha,0
same,"Plant response rating, Blackgrass",[4]; [16],0
same,"Plant response rating, Blackgrass",[4]; [17],0
same,"Plant response rating, Galium",[5]; [16],0
same,"Plant response rating, Galium",[5]; [17],0
same,"Plant response rating, Barnyardgrass",[6]; 125 g ai/ha,0
same,"Plant response rating, Barnyardgrass",[6]; 500 g ai/ha,50
same,"Plant response rating, Kochia",kochia (Kochia scoparia) [7]; 125 g ai/ha,0
same,"Plant response rating, Kochia",kochia (Kochia scoparia) [7]; 500 g ai/ha,0
same,"Plant response rating, Ragweed",[8]; [16],0
same,"Plant response rating, Ragweed",[8]; [17],0
same,"Plant response rating, Ryegrass, Italian",[9]; [16],0
same,"Plant response rating, Ryegrass, Italian",[9]; [17],0
same,"Plant response rating, Barnyardgrass",[10]; [16],20
same,"Plant response rating, Barnyardgrass",[10]; [17],60
same,"Plant response rating, Foxtail, Giant",[11]; 125 g ai/ha,20
same,"Plant response rating, Foxtail, Giant",[11]; 500 g ai/ha,90
same,"Plant response rating, Ryegrass, Italian",[12]; 125 g ai/ha,0
same,"Plant response rating, Ryegrass, Italian",[12]; 500 g ai/ha,0
same,"Plant response rating, Foxtail, Giant",[13]; [16],30
same,"Plant response rating, Foxtail, Giant",[13]; [17],50
same,"Plant response rating, Kochia",kochia (Kochia scoparia) [14]; [16],0
same,"Plant response rating, Kochia",kochia (Kochia scoparia) [14]; [17],0
same,"Plant response rating, Pigweed",[15]; [16],0
same,"Plant response rating, Pigweed",[15]; [17],0
O=C1NCC(c2cccc(Oc3ncc(Cl)cn3)c2)C1C(=O)Nc1cccc(F)c1F (stereo not shown) [Compound 56],"Plant response rating, Corn",corn (Zea mays); [16],0
same,"Plant response rating, Corn",corn (Zea mays); [17],0
same,"Plant response rating, Wheat",[1]; [16],0
same,"Plant response rating, Wheat",[1]; [17],0
same,"Plant response rating, Pigweed",[2]; 125 g ai/ha,0
same,"Plant response rating, Pigweed",[2]; 500 g ai/ha,0
same,"Plant response rating, Ragweed",[3]; 125 g ai/ha,0
same,"Plant response rating, Ragweed",[3]; 500 g ai/ha,0
same,"Plant response rating, Blackgrass",[4]; [16],0
same,"Plant response rating, Blackgrass",[4]; [17],0
same,"Plant response rating, Galium",[5]; [16],0
same,"Plant response rating, Galium",[5]; [17],20
same,"Plant response rating, Barnyardgrass",[6]; 125 g ai/ha,30
same,"Plant response rating, Barnyardgrass",[6]; 500 g ai/ha,70
same,"Plant response rating, Kochia",kochia (Kochia scoparia) [7]; 125 g ai/ha,0
same,"Plant response rating, Kochia",kochia (Kochia scoparia) [7]; 500 g ai/ha,0
same,"Plant response rating, Ragweed",[8]; [16],0
same,"Plant response rating, Ragweed",[8]; [17],0
same,"Plant response rating, Ryegrass, Italian",[9]; [16],0
same,"Plant response rating, Ryegrass, Italian",[9]; [17],0
same,"Plant response rating, Barnyardgrass",[10]; [16],0
same,"Plant response rating, Barnyardgrass",[10]; [17],30
same,"Plant response rating, Foxtail, Giant",[11]; 125 g ai/ha,0
same,"Plant response rating, Foxtail, Giant",[11]; 500 g ai/ha,0
same,"Plant response rating, Ryegrass, Italian",[12]; 125 g ai/ha,0
same,"Plant response rating, Ryegrass, Italian",[12]; 500 g ai/ha,0
same,"Plant response rating, Foxtail, Giant",[13]; [16],0
same,"Plant response rating, Foxtail, Giant",[13]; [17],60
same,"Plant response rating, Kochia",kochia (Kochia scoparia) [14]; [16],0
same,"Plant response rating, Kochia",kochia (Kochia scoparia) [14]; [17],0
same,"Plant response rating, Pigweed",[15]; [16],0
same,"Plant response rating, Pigweed",[15]; [17],0
"CN1CC(c2cccc(Oc3ncc(F)cc3F)c2)C(C(=O)Nc2ccc(F)c(F)c2F)C1=O (single isomer, unassigned) [Compound 74]","Plant response rating, Corn",corn (Zea mays); 31 g ai/ha,0
same,"Plant response rating, Corn",corn (Zea mays); [16],20
same,"Plant response rating, Wheat",[1]; 31 g ai/ha,0
same,"Plant response rating, Wheat",[1]; [16],20
same,"Plant response rating, Pigweed",[2]; 31 g ai/ha,0
same,"Plant response rating, Pigweed",[2]; 125 g ai/ha,80
same,"Plant response rating, Ragweed",[3]; 31 g ai/ha,0
same,"Plant response rating, Ragweed",[3]; 125 g ai/ha,0
same,"Plant response rating, Blackgrass",[4]; 31 g ai/ha,0
same,"Plant response rating, Blackgrass",[4]; [16],20
same,"Plant response rating, Galium",[5]; 31 g ai/ha,40
same,"Plant response rating, Galium",[5]; [16],70
same,"Plant response rating, Barnyardgrass",[6]; 31 g ai/ha,70
same,"Plant response rating, Barnyardgrass",[6]; 125 g ai/ha,90
same,"Plant response rating, Kochia",kochia (Kochia scoparia) [7]; 31 g ai/ha,0
same,"Plant response rating, Kochia",kochia (Kochia scoparia) [7]; 125 g ai/ha,40
same,"Plant response rating, Ragweed",[8]; 31 g ai/ha,0
same,"Plant response rating, Ragweed",[8]; [16],20
same,"Plant response rating, Ryegrass, Italian",[9]; 31 g ai/ha,0
same,"Plant response rating, Ryegrass, Italian",[9]; [16],30
same,"Plant response rating, Barnyardgrass",[10]; 31 g ai/ha,60
same,"Plant response rating, Barnyardgrass",[10]; [16],90
same,"Plant response rating, Foxtail, Giant",[11]; 31 g ai/ha,90
same,"Plant response rating, Foxtail, Giant",[11]; 125 g ai/ha,100
same,"Plant response rating, Ryegrass, Italian",[12]; 31 g ai/ha,30
same,"Plant response rating, Ryegrass, Italian",[12]; 125 g ai/ha,80
same,"Plant response rating, Foxtail, Giant",[13]; 31 g ai/ha,70
same,"Plant response rating, Foxtail, Giant",[13]; [16],80
same,"Plant response rating, Kochia",kochia (Kochia scoparia) [14]; 31 g ai/ha,20
same,"Plant response rating, Kochia",kochia (Kochia scoparia) [14]; [16],50
same,"Plant response rating, Pigweed",[15]; 31 g ai/ha,0
same,"Plant response rating, Pigweed",[15]; [16],60
O=C1NCC(c2cccc(Cn3cncn3)c2)C1C(=O)Nc1ccccc1F (stereo not shown) [Compound 31],"Plant response rating, Corn",corn (Zea mays); [16],0
same,"Plant response rating, Corn",corn (Zea mays); [17],0
same,"Plant response rating, Wheat",[1]; [16],0
same,"Plant response rating, Wheat",[1]; [17],0
same,"Plant response rating, Pigweed",[2]; 125 g ai/ha,0
same,"Plant response rating, Pigweed",[2]; 500 g ai/ha,0
same,"Plant response rating, Ragweed",[3]; 125 g ai/ha,0
same,"Plant response rating, Ragweed",[3]; 500 g ai/ha,0
same,"Plant response rating, Blackgrass",[4]; [16],0
same,"Plant response rating, Blackgrass",[4]; [17],0
same,"Plant response rating, Galium",[5]; [16],0
same,"Plant response rating, Galium",[5]; [17],20
same,"Plant response rating, Barnyardgrass",[6]; 125 g ai/ha,0
same,"Plant response rating, Barnyardgrass",[6]; 500 g ai/ha,0
same,"Plant response rating, Kochia",kochia (Kochia scoparia) [7]; 125 g ai/ha,0
same,"Plant response rating, Kochia",kochia (Kochia scoparia) [7]; 500 g ai/ha,0
same,"Plant response rating, Ragweed",[8]; [16],0
same,"Plant response rating, Ragweed",[8]; [17],0
same,"Plant response rating, Ryegrass, Italian",[9]; [16],0
same,"Plant response rating, Ryegrass, Italian",[9]; [17],0
same,"Plant response rating, Barnyardgrass",[10]; [16],0
same,"Plant response rating, Barnyardgrass",[10]; [17],0
same,"Plant response rating, Foxtail, Giant",[11]; 125 g ai/ha,0
same,"Plant response rating, Foxtail, Giant",[11]; 500 g ai/ha,0
same,"Plant response rating, Ryegrass, Italian",[12]; 125 g ai/ha,0
same,"Plant response rating, Ryegrass, Italian",[12]; 500 g ai/ha,0
same,"Plant response rating, Foxtail, Giant",[13]; [16],0
same,"Plant response rating, Foxtail, Giant",[13]; [17],0
same,"Plant response rating, Kochia",kochia (Kochia scoparia) [14]; [16],0
same,"Plant response rating, Kochia",kochia (Kochia scoparia) [14]; [17],0
same,"Plant response rating, Pigweed",[15]; [16],0
same,"Plant response rating, Pigweed",[15]; [17],0
